Assay: ICH stability study of psilocybin batches (appearance, water content, purity, assay)
[1] = T = 1 month, 2-8° C., listed as 170231
[2] = T = 1 month, 25° C./60% RH, listed as 170231
[3] = T = 1 month, 40° C./75% RH, listed as 170231
[4] = T = 3 months, 2-8° C., listed as 170231
[5] = T = 3 months, 25° C./60% RH, listed as 170231
[6] = T = 3 months, 40° C./75% RH, listed as 170231

For `CN(C)CCc1c[nH]c2cccc(OP(=O)(O)O)c12` [Batch 170231], the “Assay by HPLC (on a dry basis)” value (T = 0) was 98.65% ^w/w % w/w, the “Impurities LT 0.05%” value (T = 0) was 0.22% and the “Impurities by HPLC: RRT0.69” value (T = 0) was “LT 0.05%”. For the same compound, the “Impurities by HPLC: RRT 1.49” value (T = 0) was 0.06%, the “Impurities by HPLC: RRT 1.62 (Psilocin)” value (T = 0) was 0.39% and the “Impurities by HPLC: RRT 1.70” value (T = 0) was 0.05%. The “Impurity at RRT 1.89” value (T = 0) was “LT 0.05%”, the “Impurity at RRT 2.45” value (T = 0) was “LT 0.05%” and the “Chemical Purity By HPLC” value (T = 0, listed as 170231) was 99.28%. For the same compound, the “Total Impurities” value (T = 0, listed as 170231) was 0.72%, the “Water content by loss on drying” value (T = 0, listed as 170231) was 0.32% ^w/w % w/w and the “Assay by HPLC (on a dry basis)” value (T = 1 month, 2-8° C.) was 98.76% ^w/w % w/w. For the same compound, the “Impurities LT 0.05%” value (T = 1 month, 2-8° C.) was 0.39%, the “Impurities by HPLC: RRT 1.49” value (T = 1 month, 2-8° C.) was 0.05% and the “Impurities by HPLC: RRT 1.62 (Psilocin)” value (T = 1 month, 2-8° C.) was 0.36%. For the same compound, the “Impurities by HPLC: RRT 1.70” value (T = 1 month, 2-8° C.) was “LT 0.05%”, the “Impurity at RRT 1.89” value (T = 1 month, 2-8° C.) was “LT 0.05%” and the “Impurity at RRT 2.45” value (T = 1 month, 2-8° C.) was “LT 0.05%”. For the same compound, the “Chemical Purity By HPLC” value [1] was 99.20%, the “Total Impurities” value [1] was 0.80% and the “Water content by loss on drying” value [1] was 0.27% ^w/w % w/w. The “Assay by HPLC (on a dry basis)” value (T = 1 month, 25° C./60% RH) was 97.98% ^w/w % w/w, the “Impurities LT 0.05%” value (T = 1 month, 25° C./60% RH) was 0.42% and the “Impurities by HPLC: RRT 1.49” value (T = 1 month, 25° C./60% RH) was 0.05%. The “Impurities by HPLC: RRT 1.62 (Psilocin)” value (T = 1 month, 25° C./60% RH) was 0.37%, the “Impurities by HPLC: RRT 1.70” value (T = 1 month, 25° C./60% RH) was “LT 0.05%” and the “Impurity at RRT 1.89” value (T = 1 month, 25° C./60% RH) was “LT 0.05%”. The “Impurity at RRT 2.45” value (T = 1 month, 25° C./60% RH) was “LT 0.05%”, the “Chemical Purity By HPLC” value [2] was 99.16% and the “Total Impurities” value [2] was 0.84%. The “Water content by loss on drying” value [2] was 0.17% ^w/w % w/w, the “Assay by HPLC (on a dry basis)” value (T = 1 month, 40° C./75% RH) was 98.52% ^w/w % w/w and the “Impurities LT 0.05%” value (T = 1 month, 40° C./75% RH) was 0.41%. For the same compound, the “Impurities by HPLC: RRT 1.49” value (T = 1 month, 40° C./75% RH) was 0.06%, the “Impurities by HPLC: RRT 1.62 (Psilocin)” value (T = 1 month, 40° C./75% RH) was 0.36% and the “Impurities by HPLC: RRT 1.70” value (T = 1 month, 40° C./75% RH) was “LT 0.05%”. For the same compound, the “Impurity at RRT 1.89” value (T = 1 month, 40° C./75% RH) was “LT 0.05%”, the “Impurity at RRT 2.45” value (T = 1 month, 40° C./75% RH) was “LT 0.05%” and the “Chemical Purity By HPLC” value [3] was 99.17%. For the same compound, the “Total Impurities” value [3] was 0.83%, the “Water content by loss on drying” value [3] was 0.19% ^w/w % w/w and the “Assay by HPLC (on a dry basis)” value (T = 3 months, 2-8° C.) was 98.45% ^w/w % w/w. The “Impurities LT 0.05%” value (T = 3 months, 2-8° C.) was 0.22%, the “Impurities by HPLC: RRT0.69” value (T = 3 months, 2-8° C.) was 0.05% and the “Impurities by HPLC: RRT 1.49” value (T = 3 months, 2-8° C.) was 0.05%. For the same compound, the “Impurities by HPLC: RRT 1.62 (Psilocin)” value (T = 3 months, 2-8° C.) was 0.37%, the “Impurities by HPLC: RRT 1.70” value (T = 3 months, 2-8° C.) was “LT 0.05%” and the “Impurity at RRT 1.89” value (T = 3 months, 2-8° C.) was “LT 0.05%”. The “Impurity at RRT 2.45” value (T = 3 months, 2-8° C.) was “LT 0.05%”, the “Chemical Purity By HPLC” value [4] was 99.30% and the “Total Impurities” value [4] was 0.70%. For the same compound, the “Water content by loss on drying” value [4] was 0.17% ^w/w % w/w, the “Assay by HPLC (on a dry basis)” value (T = 3 months, 25° C./60% RH) was 99.46% ^w/w % w/w and the “Impurities LT 0.05%” value (T = 3 months, 25° C./60% RH) was 0.27%. The “Impurities by HPLC: RRT0.69” value (T = 3 months, 25° C./60% RH) was “LT 0.05%”, the “Impurities by HPLC: RRT 1.49” value (T = 3 months, 25° C./60% RH) was 0.05% and the “Impurities by HPLC: RRT 1.62 (Psilocin)” value (T = 3 months, 25° C./60% RH) was 0.36%. For the same compound, the “Impurities by HPLC: RRT 1.70” value (T = 3 months, 25° C./60% RH) was “LT 0.05%”, the “Impurity at RRT 1.89” value (T = 3 months, 25° C./60% RH) was “LT 0.05%” and the “Impurity at RRT 2.45” value (T = 3 months, 25° C./60% RH) was “LT 0.05%”. The “Chemical Purity By HPLC” value [5] was 99.31%, the “Total Impurities” value [5] was 0.69% and the “Water content by loss on drying” value [5] was 0.01% ^w/w % w/w. For the same compound, the “Assay by HPLC (on a dry basis)” value (T = 3 months, 40° C./75% RH) was 98.64% ^w/w % w/w, the “Impurities LT 0.05%” value (T = 3 months, 40° C./75% RH) was 0.34% and the “Impurities by HPLC: RRT0.69” value (T = 3 months, 40° C./75% RH) was “LT 0.05%”. For the same compound, the “Impurities by HPLC: RRT 1.49” value (T = 3 months, 40° C./75% RH) was 0.06%, the “Impurities by HPLC: RRT 1.62 (Psilocin)” value (T = 3 months, 40° C./75% RH) was 0.39% and the “Impurities by HPLC: RRT 1.70” value (T = 3 months, 40° C./75% RH) was “LT 0.05%”. For the same compound, the “Impurity at RRT 1.89” value (T = 3 months, 40° C./75% RH) was “LT 0.05%”, the “Impurity at RRT 2.45” value (T = 3 months, 40° C./75% RH) was “LT 0.05%” and the “Chemical Purity By HPLC” value [6] was 99.17%. For the same compound, the “Total Impurities” value [6] was 0.79%, the “Water content by loss on drying” value [6] was 0.19% ^w/w % w/w and the Appearance (T = 6 months, 2-8° C.) was “An off white solid”. The “Assay by HPLC (on a dry basis)” value (T = 6 months, 2-8° C.) was 97.97% ^w/w % w/w, the “Chemical Purity By HPLC” value (T = 6 months, 2-8° C.) was 99.20% and the “Impurities LT 0.05%” value (T = 6 months, 2-8° C.) was 0.32%. For the same compound, the “Impurities by HPLC: RRT0.69” value (T = 6 months, 2-8° C.) was 0.06% and the “Impurities by HPLC: RRT 1.49” value (T = 6 months, 2-8° C.) was “LT 0.05%”.
